The NIST ThermoML archive (doi:10.1021/acs.jced.7b01125)

Test: xn = mol fraction of the nth substance listed
Details: Gas, Buoyancy - hydrostatic balance with magnetic suspension - one sinker

[HH] [hydrogen] + C
Details | mass density [kg/m3]
250.05 K, 1999 kPa, x2 = 0.9 | 14.843
250.05 K, 8002 kPa, x2 = 0.9499 | 76.259
250.05 K, 10007 kPa, x2 = 0.9499 | 101.135
250.05 K, 11012 kPa, x2 = 0.9499 | 113.948
250.05 K, 12006 kPa, x2 = 0.9 | 113.812
250.05 K, 12009 kPa, x2 = 0.9499 | 126.528
250.05 K, 13012 kPa, x2 = 0.9 | 124.698
250.05 K, 13015 kPa, x2 = 0.9499 | 138.84
250.05 K, 14014 kPa, x2 = 0.9 | 135.178
250.05 K, 14017 kPa, x2 = 0.9499 | 150.503
250.05 K, 15015 kPa, x2 = 0.9 | 145.138
250.05 K, 15015 kPa, x2 = 0.9499 | 161.379
250.05 K, 16007 kPa, x2 = 0.9499 | 171.395
250.05 K, 16018 kPa, x2 = 0.9 | 154.622
250.05 K, 17011 kPa, x2 = 0.9 | 163.416
250.05 K, 17022 kPa, x2 = 0.9499 | 180.83
250.05 K, 18018 kPa, x2 = 0.9 | 171.725
250.05 K, 18020 kPa, x2 = 0.9499 | 189.342
250.05 K, 18962 kPa, x2 = 0.9499 | 196.737
250.05 K, 19023 kPa, x2 = 0.9 | 179.463
250.05 K, 19940 kPa, x2 = 0.9 | 186.044
260.03 K, 1002 kPa, x2 = 0.4997 | 4.206
260.03 K, 1977 kPa, x2 = 0.4997 | 8.33
260.03 K, 3002 kPa, x2 = 0.4997 | 12.694
260.03 K, 4002 kPa, x2 = 0.4997 | 16.974
260.03 K, 5000 kPa, x2 = 0.4997 | 21.26
260.03 K, 6003 kPa, x2 = 0.4997 | 25.579
260.03 K, 7000 kPa, x2 = 0.4997 | 29.878
260.03 K, 8000 kPa, x2 = 0.4997 | 34.185
260.03 K, 9003 kPa, x2 = 0.4997 | 38.489
260.03 K, 10005 kPa, x2 = 0.4997 | 42.775
260.03 K, 11002 kPa, x2 = 0.4997 | 47.008
260.03 K, 12008 kPa, x2 = 0.4997 | 51.246
260.03 K, 13002 kPa, x2 = 0.4997 | 55.387
260.03 K, 14009 kPa, x2 = 0.4997 | 59.544
260.03 K, 15005 kPa, x2 = 0.4997 | 63.583
260.03 K, 16009 kPa, x2 = 0.4997 | 67.621
260.03 K, 17009 kPa, x2 = 0.4997 | 71.57
260.03 K, 18006 kPa, x2 = 0.4997 | 75.418
260.03 K, 19113 kPa, x2 = 0.4997 | 79.651
260.04 K, 999 kPa, x2 = 0.9499 | 7.267
260.04 K, 1000 kPa, x2 = 0.9 | 6.927
260.04 K, 1999 kPa, x2 = 0.9499 | 14.926
260.04 K, 2000 kPa, x2 = 0.9 | 14.169
260.04 K, 2999 kPa, x2 = 0.9499 | 23.006
260.04 K, 3001 kPa, x2 = 0.9 | 21.762
260.04 K, 3999 kPa, x2 = 0.9499 | 31.515
260.04 K, 5000 kPa, x2 = 0.9499 | 40.497
260.04 K, 5999 kPa, x2 = 0.9499 | 49.941
260.04 K, 6001 kPa, x2 = 0.9 | 46.626
260.04 K, 7001 kPa, x2 = 0.9 | 55.622
260.04 K, 7002 kPa, x2 = 0.9499 | 59.886
260.04 K, 8003 kPa, x2 = 0.9 | 64.951
260.04 K, 8003 kPa, x2 = 0.9499 | 70.258
260.04 K, 9004 kPa, x2 = 0.9 | 74.538
260.04 K, 9006 kPa, x2 = 0.9499 | 81.038
260.04 K, 10006 kPa, x2 = 0.9 | 84.334
260.04 K, 10006 kPa, x2 = 0.9499 | 92.073
260.04 K, 11008 kPa, x2 = 0.9 | 94.232
260.04 K, 11011 kPa, x2 = 0.9499 | 103.316
260.04 K, 12013 kPa, x2 = 0.9499 | 114.514
260.04 K, 13017 kPa, x2 = 0.9499 | 125.55
260.04 K, 14016 kPa, x2 = 0.9499 | 136.214
260.04 K, 15018 kPa, x2 = 0.9499 | 146.448
260.04 K, 16023 kPa, x2 = 0.9499 | 156.169
260.04 K, 17019 kPa, x2 = 0.9499 | 165.22
260.04 K, 18026 kPa, x2 = 0.9499 | 173.779
260.04 K, 18756 kPa, x2 = 0.9499 | 179.616
260.05 K, 4000 kPa, x2 = 0.9 | 29.682
260.05 K, 5000 kPa, x2 = 0.9 | 37.974
260.05 K, 12009 kPa, x2 = 0.9 | 104.112
260.05 K, 13009 kPa, x2 = 0.9 | 113.883
260.05 K, 14013 kPa, x2 = 0.9 | 123.483
260.05 K, 15017 kPa, x2 = 0.9 | 132.774
260.05 K, 16016 kPa, x2 = 0.9 | 141.654
260.05 K, 17013 kPa, x2 = 0.9 | 150.096
260.05 K, 17614 kPa, x2 = 0.9 | 154.98
275 K, 1001 kPa, x2 = 0.4997 | 3.964
275 K, 2001 kPa, x2 = 0.4997 | 7.947
275 K, 3002 kPa, x2 = 0.4997 | 11.95
275 K, 4001 kPa, x2 = 0.4997 | 15.957
275 K, 5001 kPa, x2 = 0.4997 | 19.969
275 K, 6001 kPa, x2 = 0.4997 | 23.987
275 K, 7001 kPa, x2 = 0.4997 | 27.997
275 K, 8001 kPa, x2 = 0.4997 | 31.996
275 K, 9003 kPa, x2 = 0.4997 | 35.989
275 K, 10000 kPa, x2 = 0.4997 | 39.943
275 K, 12001 kPa, x2 = 0.4997 | 47.79
275 K, 13004 kPa, x2 = 0.4997 | 51.668
275.01 K, 999 kPa, x2 = 0.9499 | 6.842
275.01 K, 1000 kPa, x2 = 0.9 | 6.522
275.01 K, 1999 kPa, x2 = 0.9499 | 13.98
275.01 K, 2001 kPa, x2 = 0.9 | 13.293
275.01 K, 2997 kPa, x2 = 0.9499 | 21.412
275.01 K, 3001 kPa, x2 = 0.9 | 20.304
275.01 K, 4001 kPa, x2 = 0.9 | 27.568
275.01 K, 4002 kPa, x2 = 0.9499 | 29.206
275.01 K, 5002 kPa, x2 = 0.9499 | 37.281
